The text below walks through data of patent US7772425B2, “Vitamin D receptor modulators” (Eli Lilly and Company, priority 2002, dated 2010).

“And” between values parts separate entries of the source, which are not always exact repeats. Equal values may be shown once. Read-outs that look alike come from different tables or passages of the source. A value given as a limit tells only on which side of the number the result lay.

One data set relates to rat osteocalcin promoter. The data set can be described thus: OCN (osteocalcin) promoter assay in RG-15 (ROS 17/2.8) cells. Format: cell-based. The note with it: 48 hr treatment, luciferase. The procedure: 3. The OCN (Osteocalcin) Promoter Assay
The OCN Promoter Assay is an indicator and marker for osteoporosis. […] Preferred assay results are less than 50 nM.
(3) Materials and Method for The OCN Promoter Assay:
The activation of osteocalcin by VDR ligands was evaluated in a rat osteoblast-like cell line RG-15 (ROS 17/2.8) stably expressing rat osteocalcin promoter fused with luciferase reporter gene. […] Confluent RG-15 cells maintained in DMEM/F-12 medium (3:1) containing 5% FBS, 300 μg/ml G418 and at 37° C. under 5% CO2/95% air atmosphere were trypsinized (0.25% trypsin) and plated into white opaque 96-well cell culture plates (25000 cells/well). After 24 hr, cells (in DMEM/F-12 medium+2% FBS) were treated with various concentrations of compounds, dissolved in DMSO. The final DMSO concentration remained at 0.01% (v/v). After 48 hr treatment, the medium was removed, cells were lysed with 50 μl of lysis buffer (From Luciferase reporter assay system, Roche Diagnostics, Indianapolis, Ind.) and assayed for luciferase activity using the Luciferase Reporter Gene Assay kit from Boehringer Mannheim as per manufacturer's specifications.

A further data set concerns female DBF mice. The data set can be described thus: Mouse hypercalcemia assay. Format: in vivo. The note with it: orally via gavage for 6 days; serum ionized calcium 6 hours after last dosing. From the text: 4. The Mouse Hypercalcemia Assay
(4) Materials and Method for The Mouse Hypercalcemia Assay: […]

Data set [1] has as its system KERtr cells (Human skin keratinocyte). The data set can be described thus: Keratinocyte proliferation assay. The data set is classed as cell-based. The note with it: BrdU incorporation, read-out: Kera. Prolif. IC50. As for the experimental part: 5. The Keratinocyte Proliferation Assay
This Assay is indicative for the treatment of psoriasis.
(5) The Keratinocyte Proliferation Assay:
KERtr cells (Human skin keratinocyte transformed with a retrovirus vector, obtained from ATCC) were plated in 96-well flat-bottomed plates (3000 cells/well) in 100 μl keratinocyte serum free medium supplemented with bovine pituitary extract in the absence of EGF (Life Technologies, Rockville, Md.) and incubated at 37° C. for two days. The cells were treated with various concentrations of VDR ligands (ten-fold serial dilution from 10,000 nM to 0.1 nM in triplicate), dissolved in 100 μl keratinocyte serum free medium supplemented with bovine pituitary extract in the absence of EGF and incubated at 37° C. for 72 hr. BrdU (5-bromo-2′-deoxyuridine) incorporation was analyzed as a measure of DNA replication (Cell proliferation ELISA kit, Roche Diagnostics, Indianapolis, Ind.) and absorbance was measured at 405 nm. Potency values (IC50) values were determined as the concentration (nM) of compound that elicited a half-maximal response.
(In general: Dividing cells build labelled thymidine or BrdU into new DNA.)

The mark [2] stands for this setting: Homo sapiens, Keratinocyte, 72 h.

In general, EC50 refers to the concentration that produces a half-maximal response. For `CCC(CC)(c1ccc(OCC(O)C(C)(C)C)c(C)c1)c1ccc(C(=O)OC)c(C)c1` (racemic) [Ex. 1, 3′-[4-(2-hydroxy-3,3-dimethylbutoxy)-3-methylphenyl]-3′-[4-methoxycarbonyl-3-methylphenyl]pentane], the EC50 in the data set with rat osteocalcin promoter (Rattus norvegicus, 48 h) is 0.021 µM. On to `Cc1cc(C2(c3ccc(OCC(=O)C(C)(C)C)c(C)c3)CCCCC2)ccc1OCC(=O)C(C)(C)C` [CC, 1-(4-{1-[4-(3,3-Dimethyl-2-oxo-butoxy)-3-methyl-phenyl]-cyclohexyl}-2-methyl-phenoxy)-3,3-dimethyl-butan-2-one, reference compound], for which the EC50 with rat osteocalcin promoter (Rattus norvegicus, 48 h) was above 1 µM. As to `C=C1/C(=C\C=C2/CCC[C@]3(C)[C@@H]([C@H](C)CCCC(C)(C)O)CC[C@@H]23)C[C@@H](O)C[C@@H]1O` [AA, 1α,25-dihydroxyvitamin D3, reference compound], the “Mouse Hypercal” value with female DBF mice was 0.06 µg/kg/day.

One may read the IC50 as the concentration needed to halve the response being measured. With `CCC(CC)(c1ccc(OCC(O)C(C)(C)C)c(C)c1)c1ccc(C(=O)O)c(Cl)c1` (racemic) [Ex. 39, 3′-[3-methyl-4-(2-hydroxy-3,3-dimethylbutoxy)phenyl]-3′-(3-chloro-4-carboxyphenyl)pentane], the EC50 in the data set on rat osteocalcin promoter is 0.061 µM; in the data set with rat osteocalcin promoter (Rattus norvegicus, 48 h) it was 0.074 µM. In addition, the IC50 in data set [1] (setting [2]) was 0.508 µM.

Turning to `CCC(CC)(c1ccc(C(=O)O)cc1)c1ccc(OCC(O)C(C)(C)C)c(Cl)c1` (racemic) [Ex. 35, 3′-[3-chloro-4-(2-hydroxy-3,3-dimethylbutoxy)phenyl]-3′-[4-carboxyphenyl]pentane], the EC50 with rat osteocalcin promoter (Rattus norvegicus, 48 h) turned out to be 0.027 µM. For the same molecule, the IC50 in data set [1] (setting [2]) came to 0.04 µM.

Consider `CCC(CC)(c1ccc(OCC(O)C(C)(C)C)c(C)c1)c1ccc(C(=O)O)c(C)c1` (single isomer, unassigned) [Ex. 3A], for which the EC50 in the data set on rat osteocalcin promoter is 0.015 µM and 0.018 µM. The “Mouse Hypercal” value in the data set with female DBF mice is 1000 µg/kg/day. With `CCC(CC)(c1ccc(OCC(O)C(C)(C)C)c(C)c1)c1ccc(C(=O)O)c(C)c1` (single isomer, unassigned) [Ex. 3B], the EC50 in the data set on rat osteocalcin promoter is 0.057 µM and 0.083 µM. Also, the “Mouse Hypercal” value in the data set on female DBF mice is 3000 µg/kg/day. `CCC(CC)(c1ccc(OCC(O)CO)c(C)c1)c1ccc(OCC(O)C(C)(C)C)c(C)c1` (stereo not shown) [BB, 3-(4-{1-Ethyl-1-[4-(2-hydroxy-3,3-dimethyl-butoxy)-3-methyl-phenyl]-propyl}-2-methyl-phenoxy)-propane-1,2-diol, reference compound]: the “Mouse Hypercal” value with female DBF mice is 20 µg/kg/day. `CCC(CC)(c1ccc(OC[C@@H](O)C(C)(C)C)c(C)c1)c1ccc(C(=O)NCCS(C)(=O)=O)c(C)c1` (stereo in doubt) [Ex. 14, 4-{1-ethyl-1-[4-(2-hydroxy-3,3-dimethylbutoxy)-3-methylphenyl]propyl}-N-(2-methanesulfonylethyl)-2-methylbenzamide]: the EC50 in the data set on rat osteocalcin promoter (Rattus norvegicus, 48 h) was determined as 0.306 µM. In addition, the “Mouse Hypercal” value in the data set with female DBF mice was 3000 µg/kg/day. With `CCC(CC)(c1ccc(OCC(=O)C(C)(C)C)c(C)c1)c1ccc(C(=O)NCCS(C)(=O)=O)c(C)c1` [Ex. 16, 4-{1-[4-(3,3-dimethyl-2-oxobutoxy)-3-methylphenyl]-1-ethylpropyl}-N-(2-methanesulfonylethyl)-2-methylbenzamide], the EC50 in the data set on rat osteocalcin promoter (Rattus norvegicus, 48 h) worked out at 0.035 µM. In addition, in the data set on female DBF mice, the “Mouse Hypercal” value is above 5000 µg/kg/day.

For `CCC(CC)(c1ccc(CNCCS(C)(=O)=O)c(C)c1)c1ccc(OCC(=O)C(C)(C)C)c(C)c1` [Ex. 13, 1-[4-(1-ethyl-1-{4-[(2-methanesulfonyl-ethylamino)-methyl]-3-methyl-phenyl}-propyl)-2-methyl-phenoxy]-3,3-dimethyl-butan-2-one], the EC50 is 0.167 µM with rat osteocalcin promoter and 0.089 µM with rat osteocalcin promoter (Rattus norvegicus, 48 h). Further, in the data set with female DBF mice, the “Mouse Hypercal” value was 3000 µg/kg/day. Regarding `CCC(CC)(c1ccc(OC(C)C(O)C(C)(C)C)c(C)c1)c1ccc(C(=O)N[C@@H](C)C(=O)O)c(C)c1` (stereo partly shown) [Ex. 49, (L)-2-(4-{1-Ethyl-1-[4-(2-hydroxy-1,3,3-trimethyl-butoxy)-3-methyl-phenyl]-propyl}-2-methyl-benzoylamino)-propionic acid], the half-maximal inhibitory concentration (IC50) in data set [1] (72 hr) is 1 µM.

For the molecule `CCC(CC)(c1ccc(OCC(O)C(C)(C)C)c(C)c1)c1ccc(C(=O)NCCS(C)(=O)=O)c(C)c1` (single isomer, unassigned) [Ex. 15B, 4-{1-ethyl-1-[4-(2-hydroxy-3,3-dimethylbutoxy)-3-methylphenyl]propyl}-N-(2-methanesulfonylethyl)-2-methylbenzamide], the EC50 in the data set on rat osteocalcin promoter was 0.163 µM.

Regarding `CCC(CC)(c1ccc(OCC(O)C(C)(C)C)c(C)c1)c1ccc(C(=O)Nc2nnn[nH]2)c(C)c1` (single isomer, unassigned) [Ex. 27, 3′-[4-(2-hydroxy-3,3-dimethylbutoxy)-3-methylphenyl]-3′-[4-(tetrazol-5-ylaminocarbonyl)-3-methylphenyl]pentane], in the data set with rat osteocalcin promoter, the EC50 was 0.013 µM and 0.023 µM. The “Mouse Hypercal” value in the data set on female DBF mice is 300 µg/kg/day. As to `CCC(CC)(c1ccc(OCC(O)C(C)(C)C)c(C)c1)c1ccc(C(=O)OC)c(C)c1` (single isomer, unassigned) [Ex. 4A, 3′-[4-(2-hydroxy-3,3-dimethylbutoxy)-3-methylphenyl]-3′-[4-methoxycarbonyl-3-methylphenyl]pentane], the EC50 in the data set on rat osteocalcin promoter came to 0.003 µM.

Consider `CCC(CC)(c1ccc(OCC(=O)C(C)(C)C)c(C)c1)c1ccc(OC[C@H](O)C(C)(C)C)c(C)c1` [EE, reference compound], for which, in the data set on rat osteocalcin promoter (Rattus norvegicus, 48 h), the EC50 is 0.341 µM. The “Mouse Hypercal” value in the data set on female DBF mice was 1000 µg/kg/day. Regarding `CCC(CC)(c1ccc(CCC(=O)C(C)(C)C)c(C)c1)c1ccc(C(=O)O)c(C)c1` [Ex. 54, 3′-[4-(3-oxo-4,4-dimethylpentyl)-3-methylphenyl]-3′-[4-carboxyl-3-methylphenyl]pentane], in the data set with rat osteocalcin promoter (Rattus norvegicus, 48 h), the EC50 is 0.119 µM. Further, the “Mouse Hypercal” value in the data set on female DBF mice is above 3000 µg/kg/day. Turning to `CCC(CC)(c1ccc(CCC(O)C(C)(C)C)c(C)c1)c1ccc(C(=O)O)c(C)c1` (racemic) [Ex. 55, 3′-[4-(3-hydroxy-4,4-dimethylpentyl)-3-methylphenyl]-3′-[4-carboxyl-3-methylphenyl]pentane], the 50% effective concentration (EC50) with rat osteocalcin promoter (Rattus norvegicus, 48 h) came to 0.006 µM. Consider `CCC(CC)(c1ccc(OC(C)C(O)C(C)(C)C)c(C)c1)c1ccc(C(=O)O)c(C)c1` (single isomer, unassigned) [Ex. 12], for which, in the data set on rat osteocalcin promoter, the EC50 is 0.02 µM and 0.025 µM. Moreover, the “Mouse Hypercal” value in the data set on female DBF mice was 4000 µg/kg/day.

As to `CCC(CC)(c1ccc(OCC(O)C(C)(C)C)c(Cl)c1)c1ccc(C(=O)O)c(Cl)c1` (single isomer, unassigned) [Ex. 42, 3′-[3-chloro-4-(2-hydroxy-3,3-dimethyl-butoxy)phenyl]-3′-(3-chloro-4-carboxyphenyl)pentane], in data set [1] (setting [2]), the IC50 turned out to be 0.05 µM. For `CCC(CC)(c1ccc(OCC(O)C(C)(C)C)c(Cl)c1)c1ccc(C(=O)O)c(Cl)c1` (single isomer, unassigned) [Ex. 41, 3′-[3-chloro-4-(2-hydroxy-3,3-dimethyl-butoxy)phenyl]-3′-(3-chloro-4-carboxyphenyl)pentane], the EC50 with rat osteocalcin promoter turned out to be 0.421 µM.

Consider `CCC(CC)(c1ccc(OCC(O)C(C)(C)C)c(C)c1)c1ccc(C(=O)Nc2nnn[nH]2)c(C)c1` (single isomer, unassigned) [Ex. 12b, 3′-[4-(2-hydroxy-3,3-dimethylbutoxy)-3-methylphenyl]-3′-[4-(tetrazol-5-ylaminocarbonyl)-3-methylphenyl]pentane], for which the EC50 in the data set with rat osteocalcin promoter is 0.013 µM and 0.023 µM. Besides, the “Mouse Hypercal” value with female DBF mice is 300 µg/kg/day. Take `CCC(CC)(c1ccc(C(=O)O)c(C)c1)c1ccc(OCC(O)C(C)(C)C)c(Cl)c1` (racemic) [Ex. 38, 3′-[3-chloro-4-(2-hydroxy-3,3-dimethylbutoxy)phenyl]-3′-[3-methyl-4-(carboxy)phenyl]pentane]: in the data set with rat osteocalcin promoter (Rattus norvegicus, 48 h), the EC50 was determined as 0.041 µM.

With `CCC(CC)(c1ccc(OCC(O)C(C)(C)C)c(C)c1)c1ccc(C(=O)OC)c(C)c1` (single isomer, unassigned) [Ex. 4B, 3′-[4-(2-hydroxy-3,3-dimethylbutoxy)-3-methylphenyl]-3′-[4-methoxycarbonyl-3-methylphenyl]pentane], the concentration giving a half-maximal response (EC50) in the data set on rat osteocalcin promoter stood at 0.015 µM. Turning to `CCC(CC)(c1ccc(OC(C)C(O)C(C)(C)C)c(C)c1)c1ccc(C(=O)OC)c(C)c1` (single isomer, unassigned) [Ex. 10Da, 3′-[4-(2-hydroxy-1,3,3-trimethylbutoxy)-3-methylphenyl]-3′-[4-methoxycarbonyl-3-methylphenyl]pentane], the IC50 in data set [1] (setting [2]) was 1 µM.

For the molecule `CCC(CC)(c1ccc(OC[C@@H](O)C(C)(C)C)c(C)c1)c1ccc(C(=O)NCC(=O)O)c(C)c1` (stereo in doubt) [Ex. 24, (4-{1-ethyl-1-[4-(2-hydroxy-3,3-dimethylbutoxy)-3-methylphenyl]-propyl}-2-methylbenzoylamino)acetic acid], the EC50 with rat osteocalcin promoter (Rattus norvegicus, 48 h) stood at 0.0002 µM.
